From patent publication US4426390A, “Novel β-lactam compounds, process for producing thereof, and use thereof as medicines” (Sanraku-Ocean Co., Ltd., priority 1980, dated 1984)
Converted amounts (≈) assume the structure as drawn. Read-outs that look alike come from different tables or passages of the source.

Tests used:
Alcaligenes Faecolis A1 = assay: MIC by agar dilution method; type: cell-based; conditions: Alcaligenes Faecolis A1; agar dilution, 37° C., 18 hours; read-out: MIC
Protocol: (§1) The MIC is measured by an agar dilution method based on the standard method of the Japanese Society of Chemotherapy (Japanese Society of Chemotherapy: The Revised Method of Determination of MIC Values, Chemotherapy 22, 1126-1128, […]). Specifically, the antibiotic is serially diluted with a 1/50 M phosphate buffer at a pH of 7.3 to prepare a twofold dilution series. One milliliter of each dilution and 9 ml of an agar medium (Heart Infusion Agar; a product of Difco Laboratories) are mixed and allowed to solidify in a Petri dish having a diameter of 9 cm. One loopful of the stock culture of the test microbe is inoculated in trypto-soy buillon (a product of Eiken Kagaku Co., Ltd.) and incubated at 37° C. for 18 hours. The resulting culture broth is diluted to a concentration of about 10^6 cells/ml with physiological saline and inoculated on the agar plate by means of a microplanter.

[1] = tested on: Bacillus subtillis ATCC 6633; assay: MIC by agar dilution method; type: cell-based
Protocol: as §1

[2] = tested on: Citrobacter Freundii GN346; assay: MIC by agar dilution method; type: cell-based; conditions: 37° C., 18 hours
Protocol: as §1

Comamonas terrigena B996 = assay: MIC by agar dilution method; type: cell-based; conditions: 37° C., 18 hours
Protocol: as §1

E. coli RGN823 = assay: MIC by agar dilution method; type: cell-based; conditions: Escherichia coli, 37° C., 18 hours
Protocol: as §1

Ent. cloacae 45 = assay: MIC by agar dilution method; type: cell-based; conditions: Enterobacter cloacae, 37° C., 18 hours
Protocol: as §1

Ent. sp. E8 = assay: MIC by agar dilution method; type: cell-based; conditions: Ent. sp. E8; agar dilution, 37° C., 18 hours; read-out: MIC
Protocol: as §1

[3] = tested on: Enterobacter aerogenes E19; assay: MIC by agar dilution method; type: cell-based; conditions: Klebsiella aerogenes, 37° C., 18 hours
Protocol: as §1

Escherichia coli K-12 = assay: MIC by agar dilution method; type: cell-based; conditions: K12; Escherichia coli K-12; agar dilution, 37° C., 18 hours; read-out: MIC
Protocol: as §1

[4] = tested on: Klebsiella pneumoniae K13; assay: MIC by agar dilution method; type: cell-based; conditions: 37° C., 18 hours
Protocol: as §1

P. rettgeri P7 = assay: MIC by agar dilution method; type: cell-based; conditions: Providencia rettgeri; P. rettgeri P7; agar dilution, 37° C., 18 hours; read-out: MIC
Protocol: as §1

P. vulgaris GN76 = assay: MIC by agar dilution method; type: cell-based; conditions: Proteus vulgaris, 37° C., 18 hours
Protocol: as §1

Proteus mirabilis P6 = assay: MIC by agar dilution method; type: cell-based; conditions: Proteus mirabilis P6; agar dilution, 37° C., 18 hours; read-out: MIC
Protocol: as §1

Providencia sp. P8 = assay: MIC by agar dilution method; type: cell-based; conditions: Providencia sp. P8; agar dilution, 37° C., 18 hours; read-out: MIC
Protocol: as §1

Ps. aeruginosa NCTC10490 = assay: MIC by agar dilution method; type: cell-based; conditions: Pseudomonas aeruginosa, 37° C., 18 hours
Protocol: as §1

[5] = tested on: Pseudomonas aenginosa IFO3445; assay: MIC by agar dilution method; type: cell-based; conditions: 37° C., 18 hours
Protocol: as §1

S. aureus Russell = assay: MIC by agar dilution method; type: cell-based; conditions: Staphylococcus aureus
Protocol: as §1

S. aureus Smith = assay: MIC by agar dilution method; type: cell-based; conditions: Staphylococcus aureus, 37° C., 18 hours
Protocol: as §1

S. epidermidis = assay: MIC by agar dilution method; type: cell-based; conditions: Staphylococcus epidermidis, 37° C., 18 hours
Protocol: as §1

Sarcina lutea S19 = assay: MIC by agar dilution method; type: cell-based; conditions: Micrococcus luteus, 37° C., 18 hours
Protocol: as §1

Ser. marcesceus T55 = assay: MIC by agar dilution method; type: cell-based; conditions: 37° C., 18 hours
Protocol: as §1

Serratia marcesceus S18 = assay: MIC by agar dilution method; type: cell-based; conditions: 37° C., 18 hours
Protocol: as §1

[6] = tested on: Staphylococcus aureus 209P; assay: MIC by agar dilution method; type: cell-based; conditions: 37° C., 18 hours
Protocol: as §1

[7] = tested on: Citrobacter Freundii GN346; assay: Synergistic effect on MIC, microdilution transfer plate technique; type: cell-based
Proteus vulgaris GN76 = assay: as above; type: cell-based
ddY mice = conditions: mouse, in vivo, ip, 500 mg/kg
[8] = Stability (half life) in phosphate buffers of various pH; type: physicochemical; conditions: for half-life: 28° C.
Protocol: By adding 2% sodium hydroxide or 10% hydrochloric acid, the pH of 0.05 M phosphate buffer is adjusted to 4, 5, 6, 7, 8 and 9, respectively, and distributed into test tubes in an amount of 3 ml. Concentrated solution of antibiotic OA-6129A (0.05 ml) is added to each test tube and allowed to stand in a thermostatic chamber of 28° C. The time course curve of the concentration decrease of antibiotic OA-6129A is drawn by spectrophotometric measurement at 300 nm, from which the half life of the antibiotic at the indicated pH is calculated. As a control, antibiotic PS-5, a carbapenem compound described in the above-cited reference is simultaneously tested.

[9] = Physicochemical properties; conditions: pale yellow powder
P. sp. P22 = assay: MIC by agar dilution method; type: cell-based; conditions: 37° C., 18 hours
Protocol: as §1

[10] = S. aureus Russell, agar dilution, 37° C., 18 hours, read-out: MIC
[11] = OA-6129A 25 combined with CER <5
[12] = ATCC6633, Bacillus subtillis ATCC 6633, agar dilution, 37° C., 18 hours, read-out: MIC

CC[C@H]1C(=O)N2C(C(=O)O)=C(SCCNC(=O)CCNC(=O)C(O)C(C)(C)CO)C[C@H]12 (relative stereo) [OA-6129A]
MIC (Alcaligenes Faecolis A1): 1.56 µg/mL (≈ 3.41 µM)
MIC ([1]; Bacillus, ATCC6633, 18 h): 0.39 µg/mL (≈ 0.852 µM)
MIC [2]: 50 µg/mL (≈ 109 µM)
MIC (Comamonas terrigena B996): 0.05 µg/mL (≈ 0.109 µM)
MIC (E. coli RGN823): 12.5 µg/mL (≈ 27.3 µM)
MIC (Ent. cloacae 45): 50 µg/mL (≈ 109 µM)
MIC (Ent. sp. E8): 12.5 µg/mL (≈ 27.3 µM)
MIC [3]: 25 µg/mL (≈ 54.6 µM)
MIC (Escherichia coli K-12): 12.5 µg/mL (≈ 27.3 µM)
MIC [4]: 50 µg/mL (≈ 109 µM)
MIC (P. rettgeri P7): 25 µg/mL (≈ 54.6 µM)
MIC (P. vulgaris GN76): 100 µg/mL (≈ 219 µM)
MIC (Proteus mirabilis P6): 50 µg/mL (≈ 109 µM)
MIC (Providencia sp. P8): 12.5 µg/mL (≈ 27.3 µM)
MIC (Ps. aeruginosa NCTC10490): > 100 µg/mL
MIC [5]: > 100 µg/mL
MIC (S. aureus Russell; [10]): 0.78 µg/mL (≈ 1.7 µM)
MIC (S. aureus Smith): 1.56 µg/mL (≈ 3.41 µM)
MIC (S. epidermidis): 1.56 µg/mL (≈ 3.41 µM)
MIC (Sarcina lutea S19): 0.78 µg/mL (≈ 1.7 µM)
MIC (Ser. marcesceus T55): 100 µg/mL (≈ 219 µM)
MIC (Serratia marcesceus S18): 100 µg/mL (≈ 219 µM)
MIC [6]: 0.78 µg/mL (≈ 1.7 µM)
MIC ([7]; Citrobacter freundii, GN346, alone, heart infusion broth, 10^5 cells/ml): 50 µg/mL
FIC index ([7]; OA-6129A 1.56 combined with ABPC […]): 1.03
FIC index ([7]; OA-6129A 1.56 combined with CER 1250): 1.03
FIC index ([7]; OA-6129A 3.13 combined with ABPC 625): 0.63
FIC index ([7]; OA-6129A 3.13 combined with CER 625): 0.63
FIC index ([7]; OA-6129A 6.25 combined with ABPC […]): 0.38
FIC index ([7]; OA-6129A 6.25 combined with CER 313): 0.38
FIC index ([7]; OA-6129A 12.5 combined with ABPC […]): 0.50
FIC index ([7]; OA-6129A 12.5 combined with CER 313): 0.50
FIC index ([7]; OA-6129A 25 combined with ABPC <5): 0.50
FIC index [7, 11]: 0.50
FIC index (Proteus vulgaris GN76; OA-6129A 1.56 combined with ABPC (printed 3.3)): 0.28
FIC index (Proteus vulgaris GN76; OA-6129A 1.56 combined with CER 313): 0.28
FIC index (Proteus vulgaris GN76; OA-6129A 3.13 combined with ABPC 156): 0.19
FIC index (Proteus vulgaris GN76; OA-6129A 3.13 combined with CER 156): 0.19
FIC index (Proteus vulgaris GN76; OA-6129A 6.25 combined with ABPC 39): 0.16
FIC index (Proteus vulgaris GN76; OA-6129A 6.25 combined with CER 39): 0.16
FIC index (Proteus vulgaris GN76; OA-6129A 12.5 combined with ABPC 10): 0.26
FIC index (Proteus vulgaris GN76; OA-6129A 12.5 combined with CER 20): 0.27
FIC index (Proteus vulgaris GN76; OA-6129A 25 combined with ABPC 10): 0.51
FIC index (Proteus vulgaris GN76; [11]): 0.50
MIC (Proteus vulgaris GN76; Proteus vulgaris, GN76, alone, heart infusion broth, 10^5 cells/ml): 50 µg/mL
acute toxicity (ddY mice): no acute toxicity is observed
half-life ([8]; pH 4, 0.05 M phosphate buffer): 1.05 h
half-life ([8]; pH 5, 0.05 M phosphate buffer): 4.07 h
half-life ([8]; pH 6, 0.05 M phosphate buffer): 21.2 h
half-life ([8]; pH 7, 0.05 M phosphate buffer): 57.7 h
half-life ([8]; pH 8, 0.05 M phosphate buffer): 128 h
half-life ([8]; pH 9, 0.05 M phosphate buffer): 132 h
hygroscopicity [9]: hygroscopic

CC(OS(=O)(=O)O)[C@@H]1C(=O)N2C(C(=O)O)=C(SCCNC(=O)CCNC(=O)C(O)C(C)(C)CO)C[C@H]12 (relative stereo) [OA-6129C]
MIC (Alcaligenes Faecolis A1): 0.39 µg/mL (≈ 0.704 µM)
MIC [1, 12]: 0.1 µg/mL (≈ 0.181 µM)
MIC [2]: 50 µg/mL (≈ 90.3 µM)
MIC (Comamonas terrigena B996): 0.1 µg/mL (≈ 0.181 µM)
MIC (E. coli RGN823): 0.39 µg/mL (≈ 0.704 µM)
MIC (Ent. cloacae 45): 50 µg/mL (≈ 90.3 µM)
MIC (Ent. sp. E8): 1.56 µg/mL (≈ 2.82 µM)
MIC [3]: 6.25 µg/mL (≈ 11.3 µM)
MIC (Escherichia coli K-12): 0.78 µg/mL (≈ 1.41 µM)
MIC [4]: 12.5 µg/mL (≈ 22.6 µM)
MIC (P. rettgeri P7): 0.2 µg/mL (≈ 0.361 µM)
MIC (P. sp. P22): 0.78 µg/mL (≈ 1.41 µM)
MIC (P. vulgaris GN76): 1.56 µg/mL (≈ 2.82 µM)
MIC (Proteus mirabilis P6): 0.78 µg/mL (≈ 1.41 µM)
MIC (Providencia sp. P8): 0.2 µg/mL (≈ 0.361 µM)
MIC (Ps. aeruginosa NCTC10490): > 50 µg/mL
MIC [5]: 50 µg/mL (≈ 90.3 µM)
MIC (S. aureus Russell; 18 h): 3.13 µg/mL (≈ 5.65 µM)
MIC (S. aureus Smith): 0.78 µg/mL (≈ 1.41 µM)
MIC (S. epidermidis): 3.13 µg/mL (≈ 5.65 µM)
MIC (Sarcina lutea S19): 0.78 µg/mL (≈ 1.41 µM)
MIC (Ser. marcesceus T55): 12.5 µg/mL (≈ 22.6 µM)
MIC (Serratia marcesceus S18): 12.5 µg/mL (≈ 22.6 µM)
MIC [6]: 0.1 µg/mL (≈ 0.181 µM)
acute toxicity (ddY mice): no acute toxicity is observed
stability relative to OA-6129A ([8]; phosphate buffer, pH 4 to 9, 28° C.): substantially the same stability as antibiotic OA-6129A

CC(O)[C@@H]1C(=O)N2C(C(=O)O)=C(SCCNC(=O)CCNC(=O)C(O)C(C)(C)CO)C[C@H]12 (relative stereo) [OA-6129B1]
MIC (Alcaligenes Faecolis A1): 0.2 µg/mL (≈ 0.422 µM)
MIC [1, 12]: 0.05 µg/mL (≈ 0.106 µM)
MIC [2]: 6.25 µg/mL (≈ 13.2 µM)
MIC (Comamonas terrigena B996): 0.012 µg/mL (≈ 0.0253 µM)
MIC (E. coli RGN823): 0.39 µg/mL (≈ 0.824 µM)
MIC (Ent. cloacae 45): 6.25 µg/mL (≈ 13.2 µM)
MIC (Ent. sp. E8): 0.39 µg/mL (≈ 0.824 µM)
MIC [3]: 3.13 µg/mL (≈ 6.61 µM)
MIC (Escherichia coli K-12): 0.39 µg/mL (≈ 0.824 µM)
MIC [4]: > 50 µg/mL
MIC (P. rettgeri P7): 0.78 µg/mL (≈ 1.65 µM)
MIC (P. sp. P22): > 50 µg/mL
MIC (P. vulgaris GN76): 50 µg/mL (≈ 106 µM)
MIC (Proteus mirabilis P6): 0.78 µg/mL (≈ 1.65 µM)
MIC (Providencia sp. P8): 0.2 µg/mL (≈ 0.422 µM)
MIC (Ps. aeruginosa NCTC10490): > 50 µg/mL
MIC [5]: > 50 µg/mL
MIC (S. aureus Russell; [10]): 0.78 µg/mL (≈ 1.65 µM)
MIC (S. aureus Smith): 1.56 µg/mL (≈ 3.29 µM)
MIC (S. epidermidis): 0.78 µg/mL (≈ 1.65 µM)
MIC (Sarcina lutea S19): 0.1 µg/mL (≈ 0.211 µM)
MIC (Ser. marcesceus T55): 12.5 µg/mL (≈ 26.4 µM)
MIC (Serratia marcesceus S18): 6.25 µg/mL (≈ 13.2 µM)
MIC [6]: 0.1 µg/mL (≈ 0.211 µM)
